Tests used:
Type in all cases: biochemical
human Yes1 enzyme = target: T1, human Yes1 enzyme (Homo sapiens, UniProt P07947); assay: Yes1 enzyme inhibitory activity (time-resolved fluorometry, biotinylated peptide phosphorylation); details: read-out: YES_IC50
T1 construct: made in house
How it was run: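 Inhibition was expressed against a compound-free control to give IC50, using TR-FRET read-out (Eu-cryptate anti-pTyr antibody, streptavidin-XL665).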

human Src enzyme = target: T2, human Src enzyme (Homo sapiens, UniProt P12931); assay: Src enzyme inhibitory activity (time-resolved fluorometry, biotinylated peptide phosphorylation); details: read-out: SRC_IC50
T2 construct: purchased Carna Biosciences, Inc. 08-173
How it was run: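 Compounds were tested for blocking tyrosine phosphorylation of a biotinylated peptide substrate by recombinant human Src. Phosphorylated product was quantified by time-resolved fluorometry using europium cryptate and XL665 conjugates, and IC50 was calculated against the compound-free control.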

human Lck enzyme = target: T3, human Lck enzyme (Homo sapiens, UniProt P06239); assay: Lck enzyme inhibitory activity (time-resolved fluorometry, biotinylated peptide phosphorylation); details: read-out: LCK_IC50
T3 construct: purchased Carna Biosciences, Inc. 08-170
How it was run: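 Readout pairs a europium cryptate-labelled anti-phosphotyrosine antibody with XL665-streptavidin, measured by time-resolved fluorescence. IC50 derived from percent inhibition against untreated controls.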

T3 sequence (P06239 whole entry): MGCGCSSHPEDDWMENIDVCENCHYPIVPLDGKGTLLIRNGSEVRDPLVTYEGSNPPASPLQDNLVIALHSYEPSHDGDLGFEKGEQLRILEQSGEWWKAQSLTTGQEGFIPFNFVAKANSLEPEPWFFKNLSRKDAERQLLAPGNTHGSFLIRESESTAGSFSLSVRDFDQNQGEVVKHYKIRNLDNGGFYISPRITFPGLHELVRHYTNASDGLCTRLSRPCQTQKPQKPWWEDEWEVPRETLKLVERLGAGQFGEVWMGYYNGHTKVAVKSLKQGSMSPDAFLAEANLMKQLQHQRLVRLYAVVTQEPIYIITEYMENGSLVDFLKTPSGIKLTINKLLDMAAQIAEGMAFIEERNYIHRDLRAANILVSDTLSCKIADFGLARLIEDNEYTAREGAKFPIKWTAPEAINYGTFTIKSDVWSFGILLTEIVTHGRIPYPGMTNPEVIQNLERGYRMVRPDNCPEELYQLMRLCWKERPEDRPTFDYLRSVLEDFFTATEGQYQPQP
T1 sequence (P07947 whole entry): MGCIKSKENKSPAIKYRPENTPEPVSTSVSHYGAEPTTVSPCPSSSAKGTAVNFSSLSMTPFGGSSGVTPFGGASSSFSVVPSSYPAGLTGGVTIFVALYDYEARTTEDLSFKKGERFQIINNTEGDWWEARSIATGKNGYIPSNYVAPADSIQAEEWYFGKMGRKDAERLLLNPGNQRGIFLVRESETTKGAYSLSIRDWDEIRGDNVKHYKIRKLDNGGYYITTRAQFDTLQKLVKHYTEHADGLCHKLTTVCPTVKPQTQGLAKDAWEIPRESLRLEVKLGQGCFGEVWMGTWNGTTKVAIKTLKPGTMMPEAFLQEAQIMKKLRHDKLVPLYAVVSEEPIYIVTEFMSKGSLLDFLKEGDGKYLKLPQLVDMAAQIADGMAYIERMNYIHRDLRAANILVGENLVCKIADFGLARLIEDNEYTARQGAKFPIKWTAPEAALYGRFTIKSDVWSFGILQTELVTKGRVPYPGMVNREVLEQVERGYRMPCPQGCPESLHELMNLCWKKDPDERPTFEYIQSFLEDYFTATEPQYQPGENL
T2 sequence (P12931 whole entry): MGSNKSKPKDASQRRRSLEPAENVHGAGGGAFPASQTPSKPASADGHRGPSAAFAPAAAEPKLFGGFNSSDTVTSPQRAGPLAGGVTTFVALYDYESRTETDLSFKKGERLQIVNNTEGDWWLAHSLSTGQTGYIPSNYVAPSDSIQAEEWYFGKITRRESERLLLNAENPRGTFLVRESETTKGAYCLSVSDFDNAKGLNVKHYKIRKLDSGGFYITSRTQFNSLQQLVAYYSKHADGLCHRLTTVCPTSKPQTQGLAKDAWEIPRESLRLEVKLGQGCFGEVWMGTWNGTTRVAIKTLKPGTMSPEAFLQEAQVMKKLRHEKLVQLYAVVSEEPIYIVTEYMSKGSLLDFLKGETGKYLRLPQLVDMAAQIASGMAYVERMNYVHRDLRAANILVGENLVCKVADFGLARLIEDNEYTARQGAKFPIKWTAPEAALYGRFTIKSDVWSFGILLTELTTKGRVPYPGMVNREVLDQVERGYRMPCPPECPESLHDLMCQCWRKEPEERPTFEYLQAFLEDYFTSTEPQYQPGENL

SMILES | IC50 (human Yes1 enzyme) [nM] | IC50 (human Src enzyme) [nM] | IC50 (human Lck enzyme) [nM]
Cc1cc(Oc2c(F)cccc2F)ncc1-n1ncc(C(=O)c2cc3cc(OC4CCN(C5CS(=O)(=O)C5)CC4)c(Br)cc3[nH]2)c1N [Example 5-1-228, [5-amino-1-[6-(2,6-difluorophenoxy)-4-methylpyridin-3-yl]pyrazol-4-yl]-[6-bromo-5-[1-(1,1-dioxothietan-3-yl)piperidin-4-yl]oxy-1H-indol-2-yl]methanone] | 1.3 | 13 | 3.1
Cc1cc(Oc2c(F)cccc2F)ncc1-n1ncc(C(=O)c2cc3cc(OC4CCN(C(C)C)CC4)c(C4CCN(S(C)(=O)=O)CC4)cc3[nH]2)c1N [Example 5-1-229, (5-amino-1-(6-(2,6-difluorophenoxy)-4-methylpyridin-3-yl)-1H-pyrazol-4-yl)(5-((1-isopropylpiperidin-4-yl)oxy)-6-(1-(methylsulfonyl)piperidin-4-yl)-1H-indol-2-yl)methanone] | 0.77 | 6.1 | 2.4
Cc1cc(-n2ncc(C(=O)c3cc4cc(OC5CCN(C(C)C)CC5)c(C5CCN(S(C)(=O)=O)CC5)cc4[nH]3)c2N)ccc1Oc1ccccc1F [Example 5-1-230, [5-amino-1-[4-(2-fluorophenoxy)-3-methylphenyl]pyrazol-4-yl]-[6-(1-methylsulfonylpiperidin-4-yl)-5-(1-propan-2-ylpiperidin-4-yl)oxy-1H-indol-2-yl]methanone] | 0.68 | 95 | 7
Cc1cc(-n2ncc(C(=O)c3cc4cc(OC5CCN(C6CCC6)CC5)c(NS(C)(=O)=O)cc4[nH]3)c2N)ccc1Oc1ccccc1F [Example 5-1-231, N-[2-[5-amino-1-[4-(2-fluorophenoxy)-3-methylphenyl]pyrazole-4-carbonyl]-5-(1-cyclobutylpiperidin-4-yl)oxy-1H-indol-6-yl] methanesulfonamide] | 1.7 | 610 | 72
Cc1cc(-n2ncc(C(=O)c3cc4cc(OC5CCN(C6CCC6)CC5)c(N)cc4[nH]3)c2N)ccc1Oc1ccccc1F [Example 5-1-232, [6-amino-5-(1-cyclobutylpiperidin-4-yl)oxy-1H-indol-2-yl]-[5-amino-1-[4-(2-fluorophenoxy)-3-methylphenyl]pyrazol-4-yl]methanone] | 1.4 | 230 | 30
Cc1cc(-n2ncc(C(=O)c3cc4cc(OC5CCN(C6CCC6)CC5)c(N5C(=O)NC(C)(C)C5=O)cc4[nH]3)c2N)ccc1Oc1ccccc1F [Example 5-1-233, 3-(2-(5-amino-1-(4-(2-fluorophenoxy)-3-methylphenyl)-1H-pyrazole-4-carbonyl)-5-((1-cyclobutylpiperidin-4-yl)oxy)-1H-indol-6-yl)-5,5-dimethylimidazolidine-2,4-dione] | 0.92 | 340 | 21
Cc1cc(-n2ncc(C(=O)c3cc4cc(OC5CCN(C6CCC6)CC5)c(F)cc4[nH]3)c2N)ccc1Oc1ccccc1F [Example 5-1-234, [5-amino-1-[4-(2-fluorophenoxy)-3-methylphenyl]pyrazol-4-yl]-[5-(1-cyclobutylpiperidin-4-yl)oxy-6-fluoro-1H-indol-2-yl]methanone] | 3.2 | 490 | 73
Cc1cc(-n2ncc(C(=O)c3cc4cc(OC5CCN(C6CCC6)CC5)c(Cl)cc4[nH]3)c2N)ccc1Oc1ccccc1F [Example 5-1-235, [5-amino-1-[4-(2-fluorophenoxy)-3-methylphenyl]pyrazol-4-yl]-[6-chloro-5-(1-cyclobutylpiperidin-4-yl)oxy-1H-indol-2-yl] methanone] | 2.9 | 430 | 85
Cc1cc(-n2ncc(C(=O)c3cc4cc(OC5CCN(C(C)C)CC5)c(-c5cnn(C)c5)cc4[nH]3)c2N)ccc1Oc1ccccc1F [Example 5-1-236, (5-amino-1-(4-(2-fluorophenoxy)-3-methylphenyl)-1H-pyrazol-4-yl)(5-((1-isopropylpiperidin-4-yl)oxy)-6-(1-methyl-1H-pyrazol-4-yl)-1H-indol-2-yl)methanone] | 1.5 | 140 | 41

— patent US10479780B2, “Aminopyrazole derivatives” (Chugai Seiyaku Kabushiki Kaisha, priority 2015, dated 2019)
